In patent US8349768B2, “Use of abscisic acid to alter sensory characteristics of white grapes and wine” (Valent BioSciences Corporation, priority 2007, dated 2013):

What was measured:
grapes = conditions: S-ABA application on grapes; Han et al. 1996; cited from earlier work
[1] = test system: white wine grape cultivar 'Semillon'; experiment: Semillon wine sensory analysis: straight judgment of difference test; type: in vivo, grapevine; conditions: for Statistically significant (difference from reference wine) / Number of tasters who selected as different from reference wine/Total number of tasters: Semillon wine; for Number of tasters who selected as different from reference wine/Total number of tasters: reference = untreated control
Method: (§1) A replicated field experiment was conducted on the white wine grape cultivar ‘Semillon’ in the Riverina growing region of New South Wales, Australia to test the effect of S-ABA on white grapes. Four treatments were tested: Untreated control, 200 ppm S-ABA applied at pre-veraison, 200 ppm S-ABA applied at veraison, and 200 ppm S-ABA applied during the post-veraison period (berry sugar level of 10-11 Baume (18-20° brix)). There were 4 replicates of each treatment and the experiment was laid out in a randomized complete block (RCB) design. S-ABA was applied using a commercial airblast sprayer. S-ABA was applied at a concentration of 200 ppm in a volume of approximately 2000 L/Ha (approximately 200 gallons/A) in order to achieve thorough and complete coverage of the grape bunches. A 20% S-ABA soluble granule formulation was utilized in the experiment. The commercial surfactant Agral was included at a rate of 10 ml/100 L spray. Applications of S-ABA were made at pre-veraison (approximately 3 weeks before veraison or berry softening), veraison, and during the post-veraison period when the grape sugar levels had reached approximately 10-11 Baume (18-20° brix). The 10-11 Baume application took place 36 days after the veraison application. Irrigation, summer pruning, insecticide/fungicides and other routine vine management practices were the same as those practiced commercially by the grower in the adjacent parts of the vineyard.
(§2) Wine was produced from the grapes from each of the S-ABA treatments. Small lot primary fermentations were conducted and the wine was bottled. Triplicate ferments of each treatment were conducted using approximately 3×50 kg of grapes. Each replicate ferment contained an equal volume of grapes from each of the four field replicates. Grapes were harvested from the central panels within each replicate. All grapes were harvested from both sides of the vines from these panels. The grapes were transferred immediately to the experimental winery, protected from heat and treated with sulfur dioxide. A standard winemaking protocol used for small-scale replicated primary fermentations was followed. Following the fermentation, the wine was bottled.
(§3) Sensory analysis was conducted on the treated and untreated wines. A panel consisting of nine experienced wine tasters evaluated the wines for aroma and taste. The wine grape cultivar was identified, but no information regarding the field treatments was identified to the tasters.
A straight judgment of difference test was conducted to determine if the wines were different from the untreated control. […] Therefore, these wines can be considered to be different from the reference wine, thereby implying a treatment effect.

grapevines = conditions: application of S-ABA; During and Broquedis 1980; cited from earlier work
[2] = test system: white wine grape cultivar 'Semillon'; experiment: Semillon grape tasting panel; type: in vivo, grapevine; conditions: Semillon grapes sampled at preharvest and at harvest; panel of three tasters; 200 ppm S-ABA
Method: as §1, with “Irrigation, summer pruning, insecticide/fungicides and other routine vine management practices were the same as those practiced commercially by the grower in the adjacent parts of the vineyard.” left out

[3] = test system: white wine grape cultivar 'Semillon'; experiment: Semillon wine descriptive analysis; type: in vivo, grapevine; conditions: for Aroma (descriptor): untreated: low aroma, some fruit; for Color (descriptor): untreated: pale straw
Method: as §1, §2, §3
A wine descriptive analysis was also conducted for the Semillon wines prepared from the untreated control and from the S-ABA treatments. The panels provided descriptive terms to characterize the aroma, taste and color profile of each wine. The methodology used was based on survey-style collection with a thematic analysis to pull out the most consistent terms (Table 5).

[4] = test system: white wine grape cultivar 'Semillon'; experiment: Semillon wine chemical (spectral) analysis; type: in vivo, grapevine
Method: as §1, §2
Chemical analyses were conducted on the wines prepared from the various treatments in the field experiment using industry standard analytical methods.

[5] = test system: white wine grape cultivar 'Chardonnay'; experiment: Chardonnay wine descriptive analysis; type: in vivo, grapevine
Method: (§4) A large block unreplicated field experiment was conducted on the white wine grape cultivar ‘Chardonnay’ in the Riverina growing region of New South Wales, Australia to test the effect of S-ABA on white grapes. Three treatments were tested: Untreated control, 200 ppm S-ABA applied at pre-veraison and 200 ppm S-ABA applied at veraison. Each block consisted of 4 rows and covered 0.4 Ha in size. S-ABA was applied using a commercial airblast sprayer. S-ABA was applied at a concentration of 200 ppm in a volume of approximately 1000 L/Ha (approximately 100 gallons/A) in order to achieve thorough and complete coverage of the grape bunches. A 20% S-ABA soluble granule formulation was utilized in the experiment. The commercial surfactant Kendeen 20 was included at a rate of 50 ml/100 L spray. Applications of S-ABA were made at pre-veraison (approximately 3 weeks before veraison or berry softening) and veraison. Irrigation, summer pruning, insecticide/fungicides and other routine vine management practices were the same as those practiced commercially by the grower in the adjacent parts of the vineyard.
Wine was produced from the grapes from each of the S-ABA treatments. […]
Sensory analysis was conducted on the S-ABA-treated and untreated wines. A panel consisting of ten experienced wine tasters evaluated the wines for aroma and taste. […]

[6] = test system: white wine grape cultivar 'Chardonnay'; experiment: Chardonnay field experiment: standard maturity berry measurements at harvest; type: in vivo, grapevine; conditions: for Baume: Chardonnay berries at harvest (26 days after veraison); for Titratable Acidity / pH: Chardonnay berries at harvest
Method: as §4
Grapes samples were harvested at the time of commercial harvest for berry analysis and table wine production. For the standard maturity berry measurements, 12-20 bunches per replicate were sampled. Bunches were randomly selected from both sides of the vines. Samples were analyzed using standard analytical methods used by the grape and wine industry. For additional spectral analyses, samples of 100 berries from each treatment were collected prior to winemaking.

[7] = 200 ppm S-ABA applied at pre-veraison
[8] = 200 ppm S-ABA applied at veraison
[9] = 200 ppm S-ABA applied post-veraison (11 Baume)

Which “Berry and cluster weight” value (grapes) does the source give for “(S)-5-(1-hydroxy-2,6,6,-trimethyl-4-oxo-2-cyclohexen-1-yl)-3-methyl-(2Z,4E)-pentadienoic acid [S-ABA]” here?
The value was “increase berry and cluster weight”.

What about the “Judgment of difference from the reference wine (untreated control)” value ([1]; All Semillon wines from the S-ABA treatments, nine tasters, with statistical significance) of the same substance?
Its value is “judged to be different from the reference wine”.

What about the “Statistically significant (difference from reference wine)” value [1, 7] of the same substance?
Its value is “Yes”.

What about the “Number of tasters who selected as different from reference wine/Total number of tasters” value [1, 7] of the same substance?
Its value is 8/9.

And the “Statistically significant (difference from reference wine)” value [1, 8]?
Its value is “Yes”.

And the “Number of tasters who selected as different from reference wine/Total number of tasters” value [1, 8]?
Its value is 8/9.

What about the “Statistically significant (difference from reference wine)” value [1, 9] of the same substance?
The value was “Yes”.

What about the “Number of tasters who selected as different from reference wine/Total number of tasters” value [1, 9] of the same substance?
Its value is 8/9.

And the “Stomatal resistance in grapevines” value (grapevines)?
The value was “increase stomatal resistance”.

And the “Flavor of S-ABA treated grapes vs untreated grapes” value [2]?
Its value is “notable differences in flavor”.

And the “Taste (descriptor)” value ([3]; 200 ppm S-ABA applied at pre-veraison, untreated: citrus, acidic)?
Its value is “Much more acidic”.

And the “Aroma (descriptor)” value [3, 7]?
Its value is “More intense fruit”.

What about the “Color (descriptor)” value [3, 7] of the same substance?
Its value is “Pale straw”.

And the “Aroma (descriptor)” value [3, 8]?
Its value is “More intense fruit”.

What about the “Aroma (descriptor)” value [3, 9] of the same substance?
The value was “More intense fruit”.

And the “Color (descriptor)” value [3, 9]?
The value was “Pale straw”.

And the “Effect on fruit aroma and acidic taste of the wine” value ([3]; 200 ppm S-ABA treatments)?
Its value is “increased or intensified”.

What about the “Total Hydroxycinnamates” value [4, 7] of the same substance?
The value was 0.8700 a.u.

What about the “Total Hydroxycinnamates” value ([4]; 200 ppm S-ABA applied at veraison, untreated control vs. veraison P = 0.0604) of the same substance?
The value was 0.9033 a.u.

What about the “Total Hydroxycinnamates” value [4, 9] of the same substance?
The value was 0.8267 a.u.

And the “Levels of hydroxycinnamates in S-ABA treated wines” value ([4]; spectral analysis, 200 ppm S-ABA treatments)?
The value was “higher levels of hydroxycinnamates”.

And the “Descriptive characteristics compared to the Untreated” value [5, 7]?
The value was “More intense aroma, slightly more mineral and bitterness”.

What about the “Effect on fruit aroma and acidic taste in the wine” value ([5]; 200 ppm S-ABA treatments) of the same substance?
Its value is “increased or intensified”.

And the Baume ([6]; 200 ppm S-ABA foliar spray applied at pre-veraison)?
Its Baume is 14.3.

And the Baume ([6]; 200 ppm S-ABA foliar spray applied at veraison)?
Its Baume is 14.4.

What about the “Titratable Acidity” value [6, 7] of the same substance?
The value was 6.2.

What about the pH [6, 7] of the same substance?
Its pH is 3.73.

What about the “Titratable Acidity” value [6, 8] of the same substance?
Its value is 6.9.

What about the pH [6, 8] of the same substance?
The pH was 3.60.

And the “Effect on berry sugar content (Baume), pH, titratable acidity or bunch weight” value ([6]; Chardonnay, 200 ppm S-ABA treatments)?
The value was “did not consistently affect”.
